{
  "source": "patent US4113946A",
  "about": "“Δ^2,3 -1,4-Morpholine-2-carboxylic acid derivatives as antibacterial agents” (Bristol-Myers Company, priority 1977, dated 1978)",
  "assay_type_in_all_cases": "cell-based",
  "key": {"[1]": {"system": "D. pneumoniae A9585", "experiment": "M.I.C. by tube dilution, D. pneumoniae A9585", "details": "Streptococcus pneumoniae, A9585; Table 9, compound of Ex. No.; serum not given; read-out: M.I.C. D. pneumoniae A9585"}, "[2]": {"system": "E. coli Juhl A15119", "experiment": "M.I.C. by tube dilution, E. coli Juhl A15119", "details": "Escherichia coli, JUHLA15119; Table 9, compound of Ex. No.; dilution not given; read-out: M.I.C. E. coli A15119"}, "[3]": {"system": "S. aureus Smith A9537", "experiment": "M.I.C. by tube dilution, S. aureus Smith A9537", "details": "Staphylococcus aureus, SMITHA9537; Table 9, compound of Ex. No.; serum and dilution not given; read-out: M.I.C. S. aureus A9537"}, "[4]": {"system": "Sal. enteritidis A9531", "experiment": "M.I.C. by tube dilution, Sal. enteritidis A9531", "details": "Salmonella enterica, ENTERITIDIS; Table 9, compound of Ex. No.; dilution not given; read-out: M.I.C. Sal. enteritidis A9531"}},
  "data": [
    {"smiles": "CC1=C(C(=O)O)N2C(=O)[C@@H](NC(=O)Cc3ccccc3CN)[C@H]2CO1", "note": "(relative stereo) [Example 24, 7β-(2-Aminomethylphenylacetamido)-3-methyl-Δ^3 -O-2-isocephem-4-carboxylic acid]", "values": [
      {"measurement": "MIC", "setting": "[1]", "value": 0.08, "unit": "µg/mL"},
      {"measurement": "MIC", "setting": "[2]", "value": 16, "unit": "µg/mL"},
      {"measurement": "MIC", "setting": "[3]", "value": 0.6, "unit": "µg/mL"},
      {"measurement": "MIC", "setting": "[4]", "value": "> 2.5", "unit": "µg/mL"}
    ]},
    {"smiles": "COc1cccc(OC)c1C(=O)N[C@@H]1C(=O)N2C(C(=O)O)=C(C)OC[C@H]12", "note": "(relative stereo) [Example 26, 7β-(2,6-Dimethoxybenzamido)-3-methyl-Δ^3 -O-2-isocephem-4-carboxylic acid]", "values": [
      {"measurement": "MIC", "setting": "[1]", "value": 32, "unit": "µg/mL"},
      {"measurement": "MIC", "setting": "[2]", "value": "> 125", "unit": "µg/mL"},
      {"measurement": "MIC", "setting": "[3]", "value": "> 125", "unit": "µg/mL"},
      {"measurement": "MIC", "setting": "[4]", "value": 32, "unit": "µg/mL"}
    ]},
    {"smiles": "CC1=C(C(=O)O)N2C(=O)[C@@H](NC(=O)CNC(=N)Cc3ccccc3)[C@H]2CO1", "note": "(relative stereo) [Example 28, 7β-[N-(Phenylacetimidoyl)aminoacetamido]-3-methyl-Δ^3 -O-2-isocephem-4-carboxylic acid]", "values": [
      {"measurement": "MIC", "setting": "[1]", "value": 0.5, "unit": "µg/mL"},
      {"measurement": "MIC", "setting": "[2]", "value": "> 125", "unit": "µg/mL"},
      {"measurement": "MIC", "setting": "[3]", "value": 4, "unit": "µg/mL"},
      {"measurement": "MIC", "setting": "[4]", "value": 125, "unit": "µg/mL"}
    ]},
    {"smiles": "CC1=C(C(=O)O)N2C(=O)[C@@H](NC(=O)NCOc3ccccc3)[C@H]2CO1", "note": "(relative stereo) [Example 31]", "values": [
      {"measurement": "MIC", "setting": "[1]", "value": 16, "unit": "µg/mL"},
      {"measurement": "MIC", "setting": "[2]", "value": "> 125", "unit": "µg/mL"},
      {"measurement": "MIC", "setting": "[3]", "value": 32, "unit": "µg/mL"},
      {"measurement": "MIC", "setting": "[4]", "value": "> 125", "unit": "µg/mL"}
    ]},
    {"smiles": "CC1=C(C(=O)O)N2C(=O)[C@@H](NC(=O)Cc3ccccc3)[C@H]2CO1", "note": "(relative stereo) [Example 32, 7β-Phenylacetamido-3-methyl-Δ^3-0-2-isocephem-4-carboxylic acid]", "values": [
      {"measurement": "MIC", "setting": "[1]", "value": 0.5, "unit": "µg/mL"},
      {"measurement": "MIC", "setting": "[2]", "value": 125, "unit": "µg/mL"},
      {"measurement": "MIC", "setting": "[3]", "value": 1, "unit": "µg/mL"},
      {"measurement": "MIC", "setting": "[4]", "value": 4, "unit": "µg/mL"}
    ]},
    {"smiles": "CC1=C(C(=O)O)N2C(=O)[C@@H](NC(=O)Cc3cccs3)[C@H]2CO1", "note": "(relative stereo) [Example 33, 7β-(2-Thienylacetamido)-3-methyl-Δ^3-0-2-isocephem-4-carboxylic acid]", "values": [
      {"measurement": "MIC", "setting": "[1]", "value": 0.25, "unit": "µg/mL"},
      {"measurement": "MIC", "setting": "[2]", "value": 32, "unit": "µg/mL"},
      {"measurement": "MIC", "setting": "[3]", "value": 1, "unit": "µg/mL"},
      {"measurement": "MIC", "setting": "[4]", "value": 2, "unit": "µg/mL"}
    ]},
    {"smiles": "CC1=C(C(=O)O)N2C(=O)[C@@H](NC(=O)Cc3ccccc3O)[C@H]2CO1", "note": "(relative stereo) [Example 35, 7β-(o-Hydroxyphenylacetamido)-3-methyl-Δ^3-0-2-isocephem-4-carboxylic acid]", "values": [
      {"measurement": "MIC", "setting": "[1]", "value": 0.25, "unit": "µg/mL"},
      {"measurement": "MIC", "setting": "[2]", "value": "> 125", "unit": "µg/mL"},
      {"measurement": "MIC", "setting": "[3]", "value": 0.5, "unit": "µg/mL"},
      {"measurement": "MIC", "setting": "[4]", "value": "> 125", "unit": "µg/mL"}
    ]},
    {"smiles": "CC1=C(C(=O)O)N2C(=O)[C@@H](NC(=O)CC#N)[C@H]2CO1", "note": "(relative stereo) [Example 36, 7β-[Cyanoacetamido]-3-methyl-Δ^3-0-2-isocephem-4-carboxylicacid]", "values": [
      {"measurement": "MIC", "setting": "[1]", "value": 0.5, "unit": "µg/mL"},
      {"measurement": "MIC", "setting": "[2]", "value": 125, "unit": "µg/mL"},
      {"measurement": "MIC", "setting": "[3]", "value": 4, "unit": "µg/mL"},
      {"measurement": "MIC", "setting": "[4]", "value": 125, "unit": "µg/mL"}
    ]},
    {"smiles": "CC1=C(C(=O)O)N2C(=O)[C@@H](NC(=O)c3c(-c4ccccc4Cl)noc3C)[C@H]2CO1", "note": "(relative stereo) [Example 39, 7β-[3-(o-chlorophenyl)-5-methyl-isoxazol-4-ylcarboxamido]-3-methyl-Δ^3-0-2-isocephem-4-carboxylic acid]", "values": [
      {"measurement": "MIC", "setting": "[1]", "value": 8, "unit": "µg/mL"},
      {"measurement": "MIC", "setting": "[2]", "value": "> 125", "unit": "µg/mL"},
      {"measurement": "MIC", "setting": "[3]", "value": "> 8", "unit": "µg/mL"},
      {"measurement": "MIC", "setting": "[4]", "value": "> 125", "unit": "µg/mL"}
    ]},
    {"smiles": "CC1=C(C(=O)O)N2C(=O)[C@@H](NC(=O)C(NC(=O)NC(=O)c3ccccc3)c3ccccc3)[C@H]2CO1", "note": "(stereo partly drawn) [Example 25, 7β-(α-Benzoylureidophenylacetamido)-3-methyl-Δ^3 -O-2-isocephem-4-carboxylic acid]", "values": [
      {"measurement": "MIC", "setting": "[1]", "value": 0.3, "unit": "µg/mL"},
      {"measurement": "MIC", "setting": "[2]", "value": 63, "unit": "µg/mL"},
      {"measurement": "MIC", "setting": "[3]", "value": 0.6, "unit": "µg/mL"},
      {"measurement": "MIC", "setting": "[4]", "value": 8, "unit": "µg/mL"}
    ]},
    {"smiles": "CC1=C(C(=O)O)N2C(=O)[C@@H](NC(=O)[C@H](O)c3ccccc3)[C@H]2CO1", "note": "[Example 27, 7β-(D-α-Hydroxyphenylacetamido)-3-methyl-Δ^3 -O-2-isocephem-4-carboxylic acid]", "values": [
      {"measurement": "MIC", "setting": "[1]", "value": 1, "unit": "µg/mL"},
      {"measurement": "MIC", "setting": "[2]", "value": 16, "unit": "µg/mL"},
      {"measurement": "MIC", "setting": "[3]", "value": 2, "unit": "µg/mL"},
      {"measurement": "MIC", "setting": "[4]", "value": 8, "unit": "µg/mL"}
    ]},
    {"smiles": "CCCCC(=O)NC1C(=O)N2C(C(=O)O)=C(C)OCC12", "note": "(stereo not drawn) [Example 29, 7β-Valeramido-3-methyl-Δ^3 -O-2-isocephem-4-carboxylic acid]", "values": [
      {"measurement": "MIC", "setting": "[1]", "value": 125, "unit": "µg/mL"},
      {"measurement": "MIC", "setting": "[2]", "value": "> 125", "unit": "µg/mL"},
      {"measurement": "MIC", "setting": "[3]", "value": 125, "unit": "µg/mL"},
      {"measurement": "MIC", "setting": "[4]", "value": "> 125", "unit": "µg/mL"}
    ]}
  ]
}
